{"source": "patent US5530019A", "about": "“Indole derivatives useful as testosterone 5α-reductase inhibitors” (Fujisawa Pharmaceutical Co., Ltd., priority 1993, dated 1996)", "target": "T1, testosterone 5α-reductase (Rattus norvegicus, UniProt P31214)", "T1 construct": "The prostates were drained, minced, and then homogenized in 3 -4 tissue volumes of medium A; from tissue; host or cells: ventral prostate of mature male Sprague-Dawley rats, resuspended 3,000 g pellet", "T1 sequence (P31214 1-254)": "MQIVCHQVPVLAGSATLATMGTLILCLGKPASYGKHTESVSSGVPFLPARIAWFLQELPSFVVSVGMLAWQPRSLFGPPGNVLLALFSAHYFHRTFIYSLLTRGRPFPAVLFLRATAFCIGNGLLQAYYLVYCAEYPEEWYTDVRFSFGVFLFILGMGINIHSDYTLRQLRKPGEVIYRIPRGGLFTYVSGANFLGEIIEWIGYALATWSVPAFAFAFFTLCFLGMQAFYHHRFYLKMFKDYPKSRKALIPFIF", "test": "Inhibitory activity on testosterone 5α-reductase in rats (rat ventral prostate suspension, 3H-testosterone)", "type": "biochemical, rat (Spraque-Dawley male rats)", "conditions": "rat prostatic 5α-reductase; 2.2×10^-9 M testosterone, 50 μM NADPH, pH 6.5, 37° C., 30 minutes", "from_the_text": "[2]Inhibitory activity on testosterone 5α-reductase in rats:\n1,2,6,7-^3 H-testosterone (85-105 Ci/mmol) is a mixture of 1,2,6,7-3H-testosterone and testosterone which includes 85-105 Ci of 1,2,6,7-^3 H-testosterone per mmol of testosterone and is purchased from New England Nuclear, Boston, Mass., U.S.A.\nAquazol-2 (Aquazol-2 Universal LSC Cocktail) trademark, purchased from New England Nuclear, Boston, Mass., U.S.A. ii) Preparation of prostatic testosterone 5α-reductase\nMature Spraque-Dawley male rats (7-8 weeks old) were sacrificed by diethyl ether. The ventral prostates were dissected to be free of their capsules and their combined volume was measured by displacement in several milliliters of ice-cold medium A (0.32M sucrose, 0.1 mM dithiothreitol and 20 mM sodium phosphate, pH 6.5). Unless specified, all the following procedures were carried out at 0 -4. The prostates were drained, minced, and then homogenized in 3 -4 tissue volumes of medium A with Pyrex-glass homogenizer. […]\nThe reaction solution contains 1 mM dithiothreitol, 40 mM sodium phosphate pH 6.5, 50 μM NADPH, 1,2,6,7-^3 H-testosterone/testosterone (2.2×10^-9 M) and the suspension prepared above ([…]) in a total volume of 565 μl. […] The radioactivity was determined in 5 ml of Aquazol-2 in Packard scintillation counter (PACKARD TRI-CARB 4530), and an inhibitory ratio was calculated.", "note": "pIC50: −log10 of the molar value."}
{"smiles": "CCCCCCCCCCC(=O)c1cn(CCCC(=O)O)c2ccccc12", "note": "[(1), 4-(3-Undecanoyl-1-indolyl)butyric acid]", "values": [{"measurement": "pIC50", "result": 9.36}]}
